GI50 and TGI data for nine compounds are collected here from PubChem BioAssay (NCI).

SMILES strings stand for the structures.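 Following 48 hours of exposure in 96-well plates, responses at five concentrations were used to interpolate endpoints linearly. GI50 is the concentration that inhibits growth by half. At the TGI there is no net growth.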

One may read the GI50 as the concentration giving 50% growth inhibition. In general, TGI refers to the concentration giving total growth inhibition. Lower therefore signals greater sensitivity of the cells.

One assay concerns A549 NSCLC. Nature of the assay: DTP human tumour cell line panel, 48 h.
As for `OC(c1cccc(C(F)(F)F)c1)c1cnccc1NC1CCCCCC1` (stereo not given), the GI50 is 3.58 µM and the TGI was found to be 11.4 µM.

Turning to `N#Cc1c(O)c2c(c(O)c1C#N)C(=O)c1ccccc1C2=O`, the GI50 was 1.62 µM and the TGI amounted to 8.02 µM.

For `CN=C1NC(=O)/C(=C/c2ccc3ncccc3c2)S1`, the GI50 was 5.13 µM and the TGI was more than 25 µM.

Consider `COC(=O)c1c(OC)cccc1C(=O)O`, for which the concentration for total growth inhibition (TGI) was more than 100 µM.

For `CC1=CCCC(OC(N)=O)C1` (stereo not given), the TGI was more than 100 µM.

Regarding `c1ccc(-c2nnc(-c3nn(-c4ccccc4)c4nc5ccccc5nc34)o2)cc1`, the TGI is more than 100 µM.

In the case of `Cc1c(C(=O)/C=C/c2cccc3ccccc23)[n+](=O)c2ccccc2n1[O-]`, the TGI is 35 µM.

For `CC(=O)/C=C/c1cccc(N=S)c1`, the TGI was more than 59.1 µM.

`CC1=C[C@@H]2Cc3occc3C(C)(C)[C@@H]2CC1` showed a total growth inhibition concentration (TGI) of 49.6 µM.

The next assay deals with CAKI-1 renal. Nature of the assay: DTP human tumour cell line panel, 48 h.
Regarding `OC(c1cccc(C(F)(F)F)c1)c1cnccc1NC1CCCCCC1` (stereo not given), the GI50 was 1.55 µM and the total growth inhibition concentration (TGI) was determined as 3.85 µM.

For `N#Cc1c(O)c2c(c(O)c1C#N)C(=O)c1ccccc1C2=O`, the GI50 was 2.65 µM and the TGI was 8.3 µM.

As to `CN=C1NC(=O)/C(=C/c2ccc3ncccc3c2)S1`, the GI50 was 4.6 µM and the TGI was more than 20.9 µM.

In turn, `COC(=O)c1c(OC)cccc1C(=O)O` gave a total growth inhibition concentration (TGI) of more than 100 µM.

Consider `CC1=CCCC(OC(N)=O)C1` (stereo not given), for which the TGI was more than 100 µM.

Regarding `c1ccc(-c2nnc(-c3nn(-c4ccccc4)c4nc5ccccc5nc34)o2)cc1`, the TGI is more than 100 µM.

`Cc1c(C(=O)/C=C/c2cccc3ccccc23)[n+](=O)c2ccccc2n1[O-]`: the TGI was 21.8 µM.

Consider `CC(=O)/C=C/c1cccc(N=S)c1`, for which the TGI was more than 100 µM.

In turn, `CC1=C[C@@H]2Cc3occc3C(C)(C)[C@@H]2CC1` came in with a TGI of 52.2 µM.

A further assay relates to CCRF-CEM leukemia. The experiment in a line: DTP human tumour cell line panel, 48 h.
For `OC(c1cccc(C(F)(F)F)c1)c1cnccc1NC1CCCCCC1` (stereo not given), the GI50 was 2.56 µM and the TGI was found to be 7.98 µM.

Turning to `N#Cc1c(O)c2c(c(O)c1C#N)C(=O)c1ccccc1C2=O`, the GI50 is 2.23 µM and the concentration for total growth inhibition (TGI) came to 5.82 µM.

For the compound `CN=C1NC(=O)/C(=C/c2ccc3ncccc3c2)S1`, the GI50 is 7.81 µM and the TGI is more than 25 µM.

On to `COC(=O)c1c(OC)cccc1C(=O)O`, for which the TGI was more than 100 µM.

The compound `CC1=CCCC(OC(N)=O)C1` (stereo not given) displayed a TGI of more than 100 µM.

`c1ccc(-c2nnc(-c3nn(-c4ccccc4)c4nc5ccccc5nc34)o2)cc1` registered a TGI of 85.5 µM.

The compound `Cc1c(C(=O)/C=C/c2cccc3ccccc23)[n+](=O)c2ccccc2n1[O-]` yielded a TGI of 16.8 µM.

With `CC(=O)/C=C/c1cccc(N=S)c1`, the TGI is more than 49.1 µM.

Turning to `CC1=C[C@@H]2Cc3occc3C(C)(C)[C@@H]2CC1`, the TGI stood at 35.6 µM.

Another assay deals with HCC-2998 colon. Nature of the assay: DTP human tumour cell line panel, 48 h.
For the compound `OC(c1cccc(C(F)(F)F)c1)c1cnccc1NC1CCCCCC1` (stereo not given), the GI50 was 1.74 µM and the TGI amounted to 3.36 µM.

`N#Cc1c(O)c2c(c(O)c1C#N)C(=O)c1ccccc1C2=O`: the GI50 was 2.51 µM and the total growth inhibition concentration (TGI) was 8.59 µM.

In the case of `CN=C1NC(=O)/C(=C/c2ccc3ncccc3c2)S1`, the GI50 is more than 20 µM and the concentration for total growth inhibition (TGI) was more than 25 µM.

With `COC(=O)c1c(OC)cccc1C(=O)O`, the TGI is more than 100 µM.

In turn, `CC1=CCCC(OC(N)=O)C1` (stereo not given) returned a TGI of more than 100 µM.

`c1ccc(-c2nnc(-c3nn(-c4ccccc4)c4nc5ccccc5nc34)o2)cc1` had a TGI of more than 100 µM.

`Cc1c(C(=O)/C=C/c2cccc3ccccc23)[n+](=O)c2ccccc2n1[O-]`: the TGI turned out to be 30.8 µM.

`CC(=O)/C=C/c1cccc(N=S)c1` came in with a total growth inhibition concentration (TGI) of 34.6 µM.

`CC1=C[C@@H]2Cc3occc3C(C)(C)[C@@H]2CC1` registered a TGI of 36.2 µM.

The subject of another assay is HL-60(TB) leukemia. Nature of the assay: DTP human tumour cell line panel, 48 h.
On to `OC(c1cccc(C(F)(F)F)c1)c1cnccc1NC1CCCCCC1` (stereo not given), for which the GI50 was 2.13 µM and the TGI was 4.47 µM.

Take `N#Cc1c(O)c2c(c(O)c1C#N)C(=O)c1ccccc1C2=O`: the GI50 was 1.44 µM and the TGI is 3.64 µM.

Consider `CN=C1NC(=O)/C(=C/c2ccc3ncccc3c2)S1`, for which the GI50 was 8.73 µM and the TGI is more than 25 µM.

Consider `COC(=O)c1c(OC)cccc1C(=O)O`, for which the TGI was more than 100 µM.

Compound `CC1=CCCC(OC(N)=O)C1` (stereo not given) came in with a TGI of more than 100 µM.

With `c1ccc(-c2nnc(-c3nn(-c4ccccc4)c4nc5ccccc5nc34)o2)cc1`, the TGI was 85.2 µM.

For `Cc1c(C(=O)/C=C/c2cccc3ccccc23)[n+](=O)c2ccccc2n1[O-]`, the TGI worked out at 27.3 µM.

Compound `CC(=O)/C=C/c1cccc(N=S)c1` displayed a TGI of 34.2 µM.

For the compound `CC1=C[C@@H]2Cc3occc3C(C)(C)[C@@H]2CC1`, the TGI came to 39.1 µM.

A further assay deals with HOP-62 NSCLC. The experiment in a line: DTP human tumour cell line panel, 48 h.
With `OC(c1cccc(C(F)(F)F)c1)c1cnccc1NC1CCCCCC1` (stereo not given), the GI50 was 1.89 µM and the TGI came out at 3.63 µM.

Regarding `N#Cc1c(O)c2c(c(O)c1C#N)C(=O)c1ccccc1C2=O`, the GI50 was 3.44 µM and the TGI is 10.5 µM.

In the case of `CN=C1NC(=O)/C(=C/c2ccc3ncccc3c2)S1`, the GI50 was 10.3 µM and the concentration for total growth inhibition (TGI) was more than 25 µM.

For `COC(=O)c1c(OC)cccc1C(=O)O`, the TGI was more than 100 µM.

Compound `CC1=CCCC(OC(N)=O)C1` (stereo not given) registered a TGI of more than 100 µM.

The compound `c1ccc(-c2nnc(-c3nn(-c4ccccc4)c4nc5ccccc5nc34)o2)cc1` displayed a TGI of more than 100 µM.

As for `Cc1c(C(=O)/C=C/c2cccc3ccccc23)[n+](=O)c2ccccc2n1[O-]`, the TGI is 29.6 µM.

`CC(=O)/C=C/c1cccc(N=S)c1`: the total growth inhibition concentration (TGI) was more than 100 µM.

Take `CC1=C[C@@H]2Cc3occc3C(C)(C)[C@@H]2CC1`: the TGI was 92.2 µM.

The subject of the next assay is K-562 leukemia. The experiment in a line: DTP human tumour cell line panel, 48 h.
`OC(c1cccc(C(F)(F)F)c1)c1cnccc1NC1CCCCCC1` (stereo not given): the GI50 was 1.57 µM and the total growth inhibition concentration (TGI) is 4.51 µM.

With `N#Cc1c(O)c2c(c(O)c1C#N)C(=O)c1ccccc1C2=O`, the GI50 is 1.9 µM and the TGI amounted to 6.63 µM.

With `CN=C1NC(=O)/C(=C/c2ccc3ncccc3c2)S1`, the GI50 is 13.7 µM and the TGI is more than 25 µM.

Compound `COC(=O)c1c(OC)cccc1C(=O)O` had a TGI of more than 100 µM.

For `CC1=CCCC(OC(N)=O)C1` (stereo not given), the TGI is more than 100 µM.

Compound `c1ccc(-c2nnc(-c3nn(-c4ccccc4)c4nc5ccccc5nc34)o2)cc1` showed a TGI of more than 100 µM.

Compound `Cc1c(C(=O)/C=C/c2cccc3ccccc23)[n+](=O)c2ccccc2n1[O-]` displayed a TGI of 36.5 µM.

The compound `CC(=O)/C=C/c1cccc(N=S)c1` yielded a TGI of more than 35.9 µM.

In turn, `CC1=C[C@@H]2Cc3occc3C(C)(C)[C@@H]2CC1` displayed a TGI of 42.6 µM.

The next assay relates to SF-295 CNS. Nature of the assay: DTP human tumour cell line panel, 48 h.
For the compound `OC(c1cccc(C(F)(F)F)c1)c1cnccc1NC1CCCCCC1` (stereo not given), the GI50 is 1.52 µM and the total growth inhibition concentration (TGI) came to 3.06 µM.

As for `N#Cc1c(O)c2c(c(O)c1C#N)C(=O)c1ccccc1C2=O`, the GI50 was 1.88 µM and the TGI was 14.2 µM.

On to `CN=C1NC(=O)/C(=C/c2ccc3ncccc3c2)S1`, for which the GI50 is 7.97 µM and the TGI is more than 25 µM.

With `COC(=O)c1c(OC)cccc1C(=O)O`, the TGI is more than 100 µM.

As for `CC1=CCCC(OC(N)=O)C1` (stereo not given), the TGI was more than 100 µM.

Take `c1ccc(-c2nnc(-c3nn(-c4ccccc4)c4nc5ccccc5nc34)o2)cc1`: the TGI was more than 100 µM.

`Cc1c(C(=O)/C=C/c2cccc3ccccc23)[n+](=O)c2ccccc2n1[O-]` registered a total growth inhibition concentration (TGI) of 29.7 µM.

Regarding `CC(=O)/C=C/c1cccc(N=S)c1`, the TGI amounted to 54.3 µM.

`CC1=C[C@@H]2Cc3occc3C(C)(C)[C@@H]2CC1` had a TGI of 34.1 µM.

Another assay has as its system TK-10 renal. Nature of the assay: DTP human tumour cell line panel, 48 h.
As to `OC(c1cccc(C(F)(F)F)c1)c1cnccc1NC1CCCCCC1` (stereo not given), the GI50 was 1.74 µM and the TGI was 3.24 µM.

As for `N#Cc1c(O)c2c(c(O)c1C#N)C(=O)c1ccccc1C2=O`, the GI50 was 4.2 µM and the TGI is 13.8 µM.

Consider `CN=C1NC(=O)/C(=C/c2ccc3ncccc3c2)S1`, for which the GI50 was 6.02 µM and the TGI was more than 25 µM.

The compound `COC(=O)c1c(OC)cccc1C(=O)O` showed a total growth inhibition concentration (TGI) of more than 100 µM.

Turning to `CC1=CCCC(OC(N)=O)C1` (stereo not given), the TGI is more than 100 µM.

As for `c1ccc(-c2nnc(-c3nn(-c4ccccc4)c4nc5ccccc5nc34)o2)cc1`, the concentration for total growth inhibition (TGI) is more than 100 µM.

`Cc1c(C(=O)/C=C/c2cccc3ccccc23)[n+](=O)c2ccccc2n1[O-]` gave a TGI of 34.6 µM.

As to `CC(=O)/C=C/c1cccc(N=S)c1`, the TGI was more than 89.9 µM.

For the compound `CC1=C[C@@H]2Cc3occc3C(C)(C)[C@@H]2CC1`, the TGI turned out to be 45.4 µM.

The next assay relates to UO-31 renal. The experiment in a line: DTP human tumour cell line panel, 48 h.
As for `OC(c1cccc(C(F)(F)F)c1)c1cnccc1NC1CCCCCC1` (stereo not given), the GI50 was 1.35 µM and the total growth inhibition concentration (TGI) came to 2.97 µM.

Consider `N#Cc1c(O)c2c(c(O)c1C#N)C(=O)c1ccccc1C2=O`, for which the GI50 was 2.3 µM and the TGI turned out to be 9.81 µM.

In the case of `CN=C1NC(=O)/C(=C/c2ccc3ncccc3c2)S1`, the GI50 is 5.29 µM and the TGI was more than 25 µM.

For `COC(=O)c1c(OC)cccc1C(=O)O`, the TGI is more than 100 µM.

Turning to `CC1=CCCC(OC(N)=O)C1` (stereo not given), the TGI was more than 100 µM.

`c1ccc(-c2nnc(-c3nn(-c4ccccc4)c4nc5ccccc5nc34)o2)cc1`: the TGI is more than 100 µM.

For the compound `Cc1c(C(=O)/C=C/c2cccc3ccccc23)[n+](=O)c2ccccc2n1[O-]`, the total growth inhibition concentration (TGI) came out at 31.2 µM.

The compound `CC(=O)/C=C/c1cccc(N=S)c1` registered a total growth inhibition concentration (TGI) of more than 74 µM.

For the compound `CC1=C[C@@H]2Cc3occc3C(C)(C)[C@@H]2CC1`, the TGI amounted to 33.8 µM.
